Experiments:
[1] = system: p3TP-Lux in transfected Mv1Lu cells; assay: Luciferase assay, p3TP-Lux TGF-β-responsive promoter construct; assay type: cell-based, mink; conditions: for reversal of α2M* inhibition of TGF-β2-induced luciferase activity: 200 μg/ml α2M*
Protocol: One of the prominent biological activities of TGF- ? is transcriptional activation of plasminogen activator inhibitor-1 (PAI-1) and fibronectin (1-4). The effect of fatty acids on the inhibition by. α2M* of a TGF- ? -responsive promoter construct p3TP-Lux was determined in transfected Mv1Lu cells. The p3TP-Lux contains the PAI-1 promoter and 3 repeats of a phorbol-12-myristate-13-acetate (TPA)-responsive element (29).
Luciferase Assay—Mv1Lu cells which had been plated on 12-well clustered dishes at a cell density of approximately 0.8-1.0×10^5 cells/plate were transfected with 4-6 μg of p3TP-Lux using the calcium phosphate method (24). After 12 hr, the transfected cells were washed with phosphate buffered saline and allowed to grow in a medium containing 10% fetal calf serum for 12 hr. The medium was changed to DMEM with low serum concentration (0.2% fetal calf serum) and the cells were incubated for 4-6 hr. The cells were then treated for 20 hr with TGF-.β2 (0, 50 or 100 pM), α2M* (0 or 200 μg/ml) and arachidonic acid (0, 12.5 or 25 μM) in the same low-serum medium. The cells were harvested and assayed for luciferase activity using the Promega kit according to the manufacturer's protocol. The luciferase activity was assayed in triplicate cell cultures and measured as arbitrary units (A.U.).

Mv1Lu cells = assay: [Methyl-3H]-thymidine incorporation assay, TGF-β2-induced growth inhibition; assay type: cell-based, mink
Text: The levels of TGF ? β and ? 2M* also increase dramatically. α2M* is capable of inhibiting TGF- ? activity by forming complexes with TGF- ? and thus preventing it from binding to TGF ? β receptors in cells involved. Fatty acids may potentiate TGF ? β activity by blocking complex formation of ? 2M* and TGF ? β under these conditions. To test this possibility, we determined the effects of arachidonic acid on ^125I-TGF- ? 2 binding (in the presence and absence of α2M*) to Mv1Lu cells. ? 2M* is known to inhibit TGF- ? 2 more strongly than TGF ? β1 binding to T receptors in cells (13). Various concentrations of ^125I-TGF- ? 2 were preincubated with 200 μg/ml of ? 2M* in the presence or absence of 30 μM arachidonic acid for 30 min prior to the performance of binding assays in Mv1Lu cells. […] The residual ^125I-TGF- ? binding associated with the cells after ? 2M* inhibition was mainly due to non-specific binding of ^125I-TGF- ? 2. […] In the presence of 200 μg/ml of ? 2M*, the dose-response curve of TGF ? β2 shifted to the right. […] Addition of arachidonic acid at 0.5 and 1 μM reversed the inhibitory effect of. α2M* on TGF- ? 2-induced growth inhibition as measured by [methyl-^3H]-thymidine incorporation.
[Methyl-^3H]-Thymidine Incorporation Assay—Mv1Lu cells were plated at a cell density of 7.5×10^4 cells/well in DMEM containing 0.1% fetal calf serum in 48-well cluster dishes. After 4 hr at 37° C. (to allow cell adherence), cells were treated with various concentrations of TGF- ? 2,2M* (0 or 200 μg/ml) and arachidonic acid ([…] or 1 μM). After 1h at 37° C., cells were pulsed with 1 μCi/ml [methyl-^3H]-thymidine for 2 hr. The [methyl-^3H]-th incorporation into cellular DNA was carried out in triplicate as described previously (23).

`CCCCC/C=C\C/C=C\C/C=C\C/C=C\CCCC(=O)O` [arachidonic acid] was tested, and the “reversal of α2M* inhibition of TGF-β2-induced luciferase activity” value ([1]; 12.5 μM arachidonic acid) was “completely reversed”, the “reversal of α2M* inhibition of TGF-β2-induced luciferase activity” value ([1]; 25 μM arachidonic acid) was “completely reversed” and the “effect on luciferase activity in cells treated with and without TGF-β2 in the absence of α2M*” value ([1]; 12.5 and 25 μM, absence of α2M*) was “did not influence the luciferase activity”. The “reversal of the inhibitory effect of α2M* on TGF-β2-induced growth inhibition” value (Mv1Lu cells; 0.5 μM arachidonic acid, 200 μg/ml α2M*) was “reversed”, the “reversal of the inhibitory effect of α2M* on growth inhibition induced by 1 pM TGF-β2” value (Mv1Lu cells; 1 μM arachidonic acid, 200 μg/ml α2M*) was “almost completely reversed” and the “effect on growth inhibition induced by TGF-β2 in the absence of α2M*” value (Mv1Lu cells; absence of α2M*) was “did not affect growth inhibition”.

Reference: patent US20040229791A1, “Compositions and methods of modulating TGF-beta activity by fatty acids” (priority 2002, published 2004)
